From patent US7629340B2, “N-(6-membered aromatic ring)-amido anti-viral compounds” (SmithKline Beecham Corporation, priority 2005, dated 2009) come the findings set out here.

The nature of the assay: Replicon Assay (luciferase, ET cell line). Format: cell-based, HCV. Particulars: Hepatitis C virus; % inhibition of replication relative to no compound control, test concentration of 10 μM; ET cells, luciferase read 48-72 hours; read-out: % inhib at 10 uM. The method, then:
A cell line, ET (Huh-lucubineo-ET) was used for screening of compounds of the present invention for HCV RNA dependent RNA polymerase. The ET cell line was stably transfected with RNA transcripts harboring a I389luc-ubi-neo/NS3-3′/ET; replicon with firefly luciferase-ubiquitin-neomycin phosphotransferase fusion protein and EMCV-IRES driven NS3-5B polyprotein containing the cell culture adaptive mutations (E1202G; T1280I; K1846T) (Krieger at al, 2001 and unpublished). The ET cells were grown in DMEM, supplemented with 10% fetal calf serum, 2 mM Glutamine, Penicillin (100 IU/mL)/Stretomycin (100 μg/mL), 1× nonessential amino acids, and 250 μg/mL G418 (“Geneticin”). They were all available through Life Technologies (Bethesda, Md.). The cells were plated at 0.5−1.0×10^4 cells/well in the 96 well plates and incubated for 24 hrs before adding nucleoside analogs. […] Luciferase activity were measured 48-72 hours later by adding a lysis buffer and the substrate (Catalog number Glo-lysis buffer E2661 and Bright-Glo luciferase system E2620 Promega, Madison, Wis.). Cells should not be too confluent during the assay. Percent inhibition of replication was plotted relative to no compound control. Under the same condition, cytotoxicity of the compounds was determined using cell proliferation reagent, WST-1 (Roche, Germany). The compounds showing antiviral activities, but no significant cytotoxicities were chosen to determine IC50 and TC50. For these determinations, 10 concentration of each compound were used. Concentrations for test compounds typically span a range of 500 fold. IC50 and TC50 values were calculated by fitting % inhibition at each concentration (I) to the following equation: % inhibition=100%/[1+10^(log IC50−log(I))*b] where b is Hill's coefficient.
(Replicon systems follow genome replication, usually without infectious particles.)

In the case of `COc1ccc(-c2ccc(NC(=O)[C@@H]3CCCN3C(=O)OCc3ccccc3)cc2)cc1` [Compound 6019, 2-(4′-Methoxy-biphenyl-4-ylcarbamoyl)-pyrrolidine-1-carboxylic acid benzyl ester], the inhibition at 10 µM was 10.5%. With `O=C(Nc1cccc(Br)c1)[C@@H]1CCCN1C(=O)OCc1ccccc1` [Compound 6047, 2-(3-Bromo-phenylcarbamoyl)-pyrrolidine-1-carboxylic acid benzyl ester], the inhibition at 10 µM is 1.38%.

Turning to `O=C(NC1CC1)c1cccc(-c2cccc(NC(=O)[C@@H]3CCCN3C(=O)OCc3ccccc3)c2)c1` [Compound 6310, 2-(3′-Cyclopropylcarbamoyl-biphenyl-3-ylcarbamoyl)-pyrrolidine-1-carboxylic acid benzyl ester], the inhibition at 10 µM came out at 78.4%. For `O=C(NC1CC1)c1ccc(-c2cccc(NC(=O)[C@@H]3CCCN3C(=O)OCc3ccccc3)c2)cc1` [Compound 6301, 2-(4′-Cyclopropylcarbamoyl-biphenyl-3-ylcarbamoyl)-pyrrolidine-1-carboxylic acid benzyl ester] the value was 99.1%; for `COc1cccc(-c2cccc(NC(=O)[C@@H]3CCCN3C(=O)OCc3ccccc3)c2)c1` [Compound 6008, 2-(3′-Methoxy-biphenyl-3-ylcarbamoyl)-pyrrolidine-1-carboxylic acid benzyl ester], 79.8%; for `CNc1cccc(-c2cccc(NC(=O)[C@@H]3CCCN3C(=O)OCc3ccccc3)c2)c1` [Compound 6089, 2-(3′-Methylamino-biphenyl-3-ylcarbamoyl)-pyrrolidine-1-carboxylic acid benzyl ester], 76.4%. Then `COc1cccc(OC)c1-c1cccc(NC(=O)[C@@H]2CCCN2C(=O)OCc2ccccc2)c1` (stereo in doubt) [Compound 6033, 2-(2′,6′-Dimethoxybiphenyl-3-yl-carbamoyl)-pyrrolidine-1-carboxylic acid benzyl ester], with 8.26%; and `Cc1ccc(S(=O)(=O)c2ccc(Oc3cccc(NC(=O)[C@@H]4CCCN4C(=O)OCc4ccccc4)c3)cc2)cc1` (stereo in doubt) [Compound 6027, 2-{3-[4-(Toluene-4-sulfonyl)-phenoxy]-phenylcarbamoyl}-pyrrolidine-1-carboxylic acid benzyl ester], with 98.1%; and `COc1ccccc1-c1cccc(NC(=O)[C@@H]2CCCN2C(=O)OCc2ccccc2)c1` [Compound 6031, 2-(2′-Methoxybiphenyl-3-yl-carbamoyl)-pyrrolidine-1-carboxylic acid benzyl ester], with 28.6%. Then `O=C(Nc1c(Cl)cccc1Cl)c1ccc(NC(=O)[C@@H]2CCCN2C(=O)OCc2ccccc2)cc1` [Compound 6004, 2-[4-(2,6-Dichloro-phenylcarbamoyl)-phenylcarbamoyl]-pyrrolidine-1-carboxylic acid benzyl ester], with 2.08%. Consider `Cc1nc2cc(-c3cccc(NC(=O)[C@@H]4CCCN4C(=O)OCc4ccccc4)c3)ccc2s1` [Compound 6091, 2-[3-(2-Methyl-benzothiazol-5-yl)-phenylcarbamoyl]-pyrrolidine-1-carboxylic acid benzyl ester], for which the inhibition at 10 µM is 97.7%. Regarding `O=C(Nc1cccc(-c2ccc3c(c2)OCO3)c1)[C@@H]1CCCN1C(=O)OCc1ccccc1` [Compound 6043, 2-(3-Benzo[1,3]dioxol-5-yl-phenylcarbamoyl)-pyrrolidine-1-carboxylic acid benzyl ester], the inhibition at 10 µM is 93.9%. For `O=C(Nc1cccc(-c2cccc([N+](=O)[O-])c2)c1)[C@@H]1CCCN1C(=O)OCc1ccccc1` [Compound 6309, 2-(3′-Nitro-biphenyl-3-ylcarbamoyl)-pyrrolidine-1-carboxylic acid benzyl ester] the value was 99.8%. For `Cc1c(Br)cc2[nH]c(Cc3ccc(NC(=O)[C@@H]4CCCN4C(=O)OCc4ccccc4)cc3)nc2c1C` (stereo in doubt) [Compound 6006, 2-[4-(6-Bromo-4,5-dimethyl-1H-benzoimidazol-2-ylmethyl)-phenylcarbamoyl]-pyrrolidine-1-carboxylic acid benzyl ester], the inhibition at 10 µM came to 70%. For `O=C(Nc1cccc(-c2ccc3cc(O)ccc3c2)c1)[C@@H]1CCCN1C(=O)OCc1ccccc1` [Compound 6088, 2-[3-(6-Hydroxy-naphthalen-2-yl)-phenylcarbamoyl]-pyrrolidine-1-carboxylic acid benzyl ester] the value was 99.9%; for `O=C(Nc1cccc(-c2ccc([N+](=O)[O-])cc2)c1)[C@@H]1CCCN1C(=O)OCc1ccccc1` [Compound 6053, 2-(4′-Nitro-biphenyl-3-ylcarbamoyl)-pyrrolidine-1-carboxylic acid benzyl ester], 93.3%. For the compound `O=C1Cc2cc(-c3cccc(NC(=O)[C@@H]4CCCN4C(=O)OCc4ccccc4)c3)ccc2N1` [Compound 6083, 2-[3-(2-Oxo-2,3-dihydro-1H-indol-5-yl)-phenylcarbamoyl]-pyrrolidine-1-carboxylic acid benzyl ester], the inhibition at 10 µM stood at 93.8%. For `Nc1ccc(-c2cccc(NC(=O)[C@@H]3CCCN3C(=O)OCc3ccccc3)c2)cc1` [Compound 6086, 2-(4′-Amino-biphenyl-3-ylcarbamoyl)-pyrrolidine-1-carboxylic acid benzyl ester] the value was 89.9%; for `O=C(Nc1cccc(-c2cccc3cc[nH]c23)c1)[C@@H]1CCCN1C(=O)OCc1ccccc1` [Compound 6094, 2-[3-(1H-Indol-7-yl)-phenylcarbamoyl]-pyrrolidine-1-carboxylic acid benzyl ester], 98.8%.

As to `O=C(Nc1ccc(Cc2nc3ccccc3[nH]2)cc1)[C@@H]1CCCN1C(=O)OCc1ccccc1` (stereo in doubt) [Compound 6038, 2-[4-(1H-Benzoimidazol-2-ylmethyl)-phenylcarbamoyl]-pyrrolidine-1-carboxylic acid benzyl ester], the inhibition at 10 µM turned out to be 9.34%. Then `COc1cccc(-c2ccc(NC(=O)[C@@H]3CCCN3C(=O)OCc3ccccc3)cc2)c1OC` [Compound 6028, 2-(2′,3′-Dimethoxy-biphenyl-4-ylcarbamoyl)-pyrrolidine-1-carboxylic acid benzyl ester], with 75%; and `O=C(NC1CC1)c1csc(-c2cccc(NC(=O)[C@@H]3CCCN3C(=O)OCc3ccccc3)c2)n1` [Compound 6302, 2-[3-(4-Cyclopropylcarbamoyl-thiazol-2-yl)-phenylcarbamoyl]-pyrrolidine-1-carboxylic acid benzyl ester], with 12.2%. For `O=C(Nc1cccc(-c2ccc3cc[nH]c3c2)c1)[C@@H]1CCCN1C(=O)OCc1ccccc1` [Compound 6097, 2-[3-(1H-Indol-6-yl)-phenylcarbamoyl]-pyrrolidine-1-carboxylic acid benzyl ester], the inhibition at 10 µM is 99.8%. On to `O=C(Nc1ccc(-c2cccc(-c3ccccc3)c2)cc1)[C@@H]1CCCN1C(=O)OCc1ccccc1` [Compound 6011, 2-([1,1′;3′,1″]Terphenyl-4-ylcarbamoyl)-pyrrolidine-1-carboxylic acid benzyl ester], for which the inhibition at 10 µM was 99.7%. Regarding `O=C(Nc1cccc(-c2cccs2)c1)[C@@H]1CCCN1C(=O)OCc1ccccc1` [Compound 6022, 2-(3-Thiophen-2-yl-phenylcarbamoyl)-pyrrolidine-1-carboxylic acid benzyl ester], the inhibition at 10 µM was 87.3%.
